Reference: PMC8760490, “Discovery of novel furanylbenzamide inhibitors that target oncogenic tyrosine phosphatase SHP2 in leukemia cells” (The Journal of Biological Chemistry, 2021)

Legend:
BT-549 TNBC cells = experiment: 11-day colony formation assay, BT-549; format: cell-based; details: 5, 10 or 20 μM, 11 days
Description: Inhibition of SHP2 has been reported to inhibit the growth of cancer cells including Kasumi-1 acute myeloid leukemia (AML) and KYSE-520 esophageal cancer cells ([30]). […] Thus, we treated two TNBC cell lines, BT-549 and MDA-MB-468, with SBI-4668 or the SHP2 allosteric inhibitor SHP099 at various concentrations and determined cell viability after 72 h, compared with the vehicle control (Fig. 4C). […] Next, we performed an 11-day colony formation assay with TNBC cells treated with SBI-4668 or SHP099 at 5, 10, or 20 μM (Fig. 4D).
MDA-MB-468 and […] triple-negative breast cancer cells were maintained in Dulbecco's modified Eagle's medium + 10% FBS supplemented with 1× penicillin–streptomycin/L-glutamine (Omega Scientific). About 1500 cells (in 300 μl) were seeded per well of a standard 24-well tissue culture plate (Falcon) and allowed to adhere for 24 h, before the addition of compound(s) as described. After a further 96 h, media were replaced with fresh media containing the same test compounds and concentrations. After 11 days, media were removed, and cells stained with 0.5% crystal violet (in 20% methanol; Sigma) for 20 min with agitation at 80 rpm. Stain was removed, and plates with stained cells were washed by being submerged in excess deionized water and allowed to air dry overnight before imaging.

SHP2-E76K = biological target: T1, SHP2-E76K (Homo sapiens, UniProt Q06124, E76K); experiment: Michaelis–Menten kinetics and mode of inhibition; format: biochemical
T1 construct: Recombinant human full-length SHP2 (1–594) WT and E76K mutants; made in house
T1 sequence (Q06124 1-593 E76K): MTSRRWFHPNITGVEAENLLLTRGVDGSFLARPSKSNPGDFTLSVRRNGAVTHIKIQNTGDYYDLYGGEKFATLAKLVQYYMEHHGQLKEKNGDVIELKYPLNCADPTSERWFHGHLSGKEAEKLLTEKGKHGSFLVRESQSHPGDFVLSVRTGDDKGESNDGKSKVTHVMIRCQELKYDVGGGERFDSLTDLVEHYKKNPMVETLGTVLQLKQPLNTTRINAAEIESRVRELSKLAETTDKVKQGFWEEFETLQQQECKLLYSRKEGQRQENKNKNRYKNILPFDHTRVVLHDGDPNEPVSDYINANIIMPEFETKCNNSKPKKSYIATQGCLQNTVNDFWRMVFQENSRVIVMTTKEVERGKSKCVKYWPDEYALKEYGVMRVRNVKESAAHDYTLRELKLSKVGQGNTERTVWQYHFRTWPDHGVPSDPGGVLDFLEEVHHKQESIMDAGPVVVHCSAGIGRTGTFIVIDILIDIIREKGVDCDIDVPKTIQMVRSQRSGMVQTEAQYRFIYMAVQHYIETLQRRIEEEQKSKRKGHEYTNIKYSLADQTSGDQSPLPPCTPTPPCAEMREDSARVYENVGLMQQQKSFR
Excerpt: We previously reported furanylsalicylic acids as potent and selective inhibitors of the Yersinia tyrosine phosphatase YopH ([37], [38]). […] Thus, we tested whether replacement of the neutral 2-hydroxybenzamide moiety with the negatively charged salicylate would be beneficial for the potency of this scaffold against SHP2. […] To corroborate this postulate, we subjected SBI-4668 to Michaelis–Menten kinetic studies with SHP2-E76K to determine its mode of inhibition (Fig. 3, A and B). Using nonlinear regression, initial rates at various inhibitor and substrate concentrations were fitted to the Michaelis–Menten equations for competitive, noncompetitive, uncompetitive, and mixed inhibitions. Fitting models were then compared using Akaike's Information Criterion (AIC), and inhibition mode probabilities were calculated from the differences between the corresponding second-order corrected AIC scores as previously described ([38], [39]).
SBI-4668 was tested with SHP2-E76K using a similar assay format as described previously. SBI-4668 or vehicle (DMSO) was spotted in triplicate into a black Greiner FLUOTRAC 200 384-well microplate (catalog no.: #781076; Greiner) using an Echo 555 Liquid Handler (Labcyte, Inc). […] Fluorescence intensity was measured in kinetic mode as described previously. The initial rates were determined from the linear progression curves of each SHP2-E76K reaction. […]

[1] = system: mutant SHP2 (E76K) in live cells; set-up: method as in PMID 31953320, PMID 32744526; details: cellular thermal shift assay; cited from earlier work

In the case of O=C(Nc1ccccc1)c1cc(-c2ccc(/C=C3\Sc4ccccc4C3=O)o2)ccc1O [SBI-4668, (Z)-2-Hydroxy-5-(5-((3-oxobenzo[b]thiophen-2(3H)-ylidene)methyl)furan-2-yl)-N-phenylbenzamide], the “colony formation, BT-549” value (BT-549 TNBC cells) is reported as “undetectable”, the mode of inhibition (SHP2-E76K; AIC model comparison) is reported as “either a noncompetitive or a mixed inhibition mechanism” and the Ki (SHP2-E76K; DiFMUP, read-out: inhibition constant (Ki) for noncompetitive inhibition) is reported as 1.8 µM. For the same compound, the “cellular target engagement with mutant SHP2” value [1] was “direct target engagement”.
